Measurements: publication PMC10818931, “In Vitro Evaluation of Drug–Drug Interaction Potential of Epetraborole, a Novel Bacterial Leucyl-tRNA Synthetase Inhibitor” (Pharmaceuticals, 2024)
≈ marks a conversion by molar mass, not a printed value. Where two headings read alike, the source gives them in different places.

Legend:
MATE1 = biological target: T1, MATE1 (Homo sapiens, UniProt Q96FL8); assay: Transporter inhibition; type: in vitro ADME; details: read-out: as an Inhibitor, IC50
T1 construct: host or cells: MDCK
T1 sequence (Q96FL8 1-570): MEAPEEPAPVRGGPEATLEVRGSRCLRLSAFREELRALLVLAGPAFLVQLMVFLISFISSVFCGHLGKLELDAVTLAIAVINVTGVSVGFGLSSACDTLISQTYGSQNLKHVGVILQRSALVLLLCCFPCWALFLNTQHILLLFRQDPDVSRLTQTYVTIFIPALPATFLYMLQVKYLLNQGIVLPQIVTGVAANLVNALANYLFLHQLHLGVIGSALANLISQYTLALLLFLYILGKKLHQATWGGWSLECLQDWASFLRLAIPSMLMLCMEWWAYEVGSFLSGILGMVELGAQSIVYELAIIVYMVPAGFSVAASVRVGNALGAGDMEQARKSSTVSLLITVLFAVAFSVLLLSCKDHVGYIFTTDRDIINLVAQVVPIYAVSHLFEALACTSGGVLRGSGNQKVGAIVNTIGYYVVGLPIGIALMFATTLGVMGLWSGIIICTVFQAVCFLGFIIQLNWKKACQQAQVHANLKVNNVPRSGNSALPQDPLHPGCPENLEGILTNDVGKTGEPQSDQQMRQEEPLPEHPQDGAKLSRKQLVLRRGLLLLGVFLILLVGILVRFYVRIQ

[1] = Solubility in hepatocyte incubation medium; type: physicochemical; details: aqueous buffer, read-out: Soluble in hepatocyte incubation medium at
CYP3A4/5 = assay: CYP inhibition (direct and metabolism-dependent) in human hepatic microsomes; type: in vitro ADME; details: for MDI IC50 Fold Change: metabolism-dependent inhibition; for IC50: read-out: as an Inhibitor IC50
Procedure: (§1) The direct inhibitory potential of EBO on cytochrome P450 activities O-deethylase (CYP1A2), bupropion hydroxylase (CYP2B6), amodiaquine N-deethylase (CYP2C8), diclofenac 4′-hydroxylase (CYP2C9), S-mephenytoin 4′-hydroxylase (CYP2C19), bufuralol 1′-hydroxylase (CYP2D6), chlorzoxazone 6-hydroxylase (CYP2E1), testosterone 6β-hydroxylase (CYP3A), and midazolam 1′-hydroxylase (CYP3A) was assessed in vitro using human hepatic microsomes according to Covance Laboratory (Madison, WI, USA) SOP. A single substrate concentration was used, approximating the concentration of substrate that gives half the maximum reaction velocity (Km) for human hepatic microsomes for each cytochrome P450 activity. […] All sample and control incubations were performed in triplicate and were analyzed by LC-MS/MS. Incubation mixtures contained microsomal protein and substrate in a 0.1 M potassium phosphate buffer (pH 7.4) containing 1 mM EDTA (assay buffer). […] Incubations were terminated by the addition of 100 µL of an internal standard solution followed by vortex mixing. Protein was removed by centrifugation at 1500× g for 5 min at 4 °C, and supernatants were transferred to a separate plate and stored at 4 °C prior to LC-MS/MS analysis. The analyte for each activity assay was quantitated by comparison to a linear curve of an authentic standard prepared using human microsomal protein. […] Incubations were performed at substrate concentrations approximating the average Km values. […] For determination of control activities, NADPH was added after the addition of each substrate. Samples were then processed as previously described. […] Two sets of duplicate incubations were prepared (cofactor preincubation [50 µL] and control preincubation [50 µL]) with each concentration of M3. All incubations contained a final microsomal protein concentration of 0.1 mg/mL. In this study, M3 and microsomes were preincubated with cofactor for 20 min prior to initiation of reaction by addition of probe substrate. The corresponding control incubations were designed to provide a preincubation without cofactor while incorporating the 20 min preincubation of M3 with microsomes to ensure consistent equilibration of M3 in both control and cofactor preincubations. The control preincubations were therefore performed for 20 min with M3, microsomes, and probe substrate, and the reaction was initiated by the addition of a cofactor solution. […] Incubations without cofactor (at the highest concentration of M3) were performed to determine any cofactor-independent substrate metabolism formation. Probe substrate concentrations were determined by LC/MS/MS methods.

CYP2D6 = biological target: T2, CYP2D6 (Homo sapiens, UniProt P10635); assay: as above; type: in vitro ADME; details: for MDI IC50 Fold Change: metabolism-dependent inhibition; for IC50: read-out: as an Inhibitor IC50
T2 construct: Characterized, pooled, human hepatic microsomes from 15 individuals; tissue CellzDirect (Durham, NC, USA) or XenoTech LLC (Lenexa, KS, USA); host or cells: pooled human liver microsomes (15 donors)
Procedure: as §1

CYP2C8 = biological target: T3, CYP2C8 (Homo sapiens, UniProt P10632); assay: as above; type: in vitro ADME; details: for MDI IC50 Fold Change: metabolism-dependent inhibition; for IC50: read-out: as an Inhibitor IC50
T3 construct: tissue CellzDirect; XenoTech LLC; host or cells: pooled human liver microsomes
T3 sequence (P10632 1-490): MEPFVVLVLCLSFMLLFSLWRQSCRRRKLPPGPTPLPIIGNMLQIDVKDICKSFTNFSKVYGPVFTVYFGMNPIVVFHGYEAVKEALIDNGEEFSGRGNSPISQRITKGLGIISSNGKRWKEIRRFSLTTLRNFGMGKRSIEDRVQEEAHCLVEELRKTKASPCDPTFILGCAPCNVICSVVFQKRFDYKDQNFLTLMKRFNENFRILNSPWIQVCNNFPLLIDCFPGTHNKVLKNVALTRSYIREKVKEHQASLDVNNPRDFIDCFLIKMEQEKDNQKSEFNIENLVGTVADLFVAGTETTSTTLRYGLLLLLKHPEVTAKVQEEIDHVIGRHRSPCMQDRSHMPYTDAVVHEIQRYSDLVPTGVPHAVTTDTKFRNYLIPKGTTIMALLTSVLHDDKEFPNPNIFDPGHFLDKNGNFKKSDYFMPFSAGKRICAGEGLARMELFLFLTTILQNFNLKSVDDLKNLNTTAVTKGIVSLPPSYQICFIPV
Procedure: as §1

CYP2C9 = biological target: T4, CYP2C9 (Homo sapiens, UniProt P11712); assay: as above; type: in vitro ADME; details: for MDI IC50 Fold Change: metabolism-dependent inhibition; for IC50: read-out: as an Inhibitor IC50
T4 construct: tissue CellzDirect; XenoTech LLC; host or cells: pooled human liver microsomes
Procedure: as §1

CYP3A4 = assay: as above; type: in vitro ADME; details: for MDI IC50 Fold Change / IC50: CYP3A4 (Testosterone); for MDI IC50 Fold Change: metabolism-dependent inhibition; for IC50: human, read-out: as an Inhibitor IC50
Procedure: as §1

CYP1A2 = assay: as above; type: in vitro ADME; details: for MDI IC50 Fold Change: metabolism-dependent inhibition; for IC50: pH 7.4, EBO 0.03–100 μM, M3 1–1000 µM, read-out: as an Inhibitor IC50
Procedure: as §1

MATE2K = biological target: T5, MATE2K (Homo sapiens, UniProt Q86VL8); assay: Transporter inhibition; type: in vitro ADME; details: read-out: as an Inhibitor, IC50
T5 construct: host or cells: MDCK
T5 sequence (Q86VL8 1-566 isoform Q86VL8-3): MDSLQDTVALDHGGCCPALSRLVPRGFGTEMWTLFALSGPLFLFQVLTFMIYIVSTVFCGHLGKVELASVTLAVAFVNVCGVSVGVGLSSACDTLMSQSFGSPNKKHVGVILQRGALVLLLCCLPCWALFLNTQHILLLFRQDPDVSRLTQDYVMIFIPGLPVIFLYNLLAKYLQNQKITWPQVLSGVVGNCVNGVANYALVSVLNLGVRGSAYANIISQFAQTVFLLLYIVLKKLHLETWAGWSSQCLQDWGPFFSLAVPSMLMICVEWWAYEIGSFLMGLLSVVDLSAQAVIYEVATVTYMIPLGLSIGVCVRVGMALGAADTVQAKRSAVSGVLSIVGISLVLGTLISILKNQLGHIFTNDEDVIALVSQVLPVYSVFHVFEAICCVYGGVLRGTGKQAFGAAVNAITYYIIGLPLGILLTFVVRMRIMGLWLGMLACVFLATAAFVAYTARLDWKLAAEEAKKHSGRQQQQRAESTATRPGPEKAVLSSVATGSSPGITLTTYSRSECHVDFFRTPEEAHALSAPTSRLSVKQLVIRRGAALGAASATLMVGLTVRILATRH

T2 sequence (P10635 whole entry): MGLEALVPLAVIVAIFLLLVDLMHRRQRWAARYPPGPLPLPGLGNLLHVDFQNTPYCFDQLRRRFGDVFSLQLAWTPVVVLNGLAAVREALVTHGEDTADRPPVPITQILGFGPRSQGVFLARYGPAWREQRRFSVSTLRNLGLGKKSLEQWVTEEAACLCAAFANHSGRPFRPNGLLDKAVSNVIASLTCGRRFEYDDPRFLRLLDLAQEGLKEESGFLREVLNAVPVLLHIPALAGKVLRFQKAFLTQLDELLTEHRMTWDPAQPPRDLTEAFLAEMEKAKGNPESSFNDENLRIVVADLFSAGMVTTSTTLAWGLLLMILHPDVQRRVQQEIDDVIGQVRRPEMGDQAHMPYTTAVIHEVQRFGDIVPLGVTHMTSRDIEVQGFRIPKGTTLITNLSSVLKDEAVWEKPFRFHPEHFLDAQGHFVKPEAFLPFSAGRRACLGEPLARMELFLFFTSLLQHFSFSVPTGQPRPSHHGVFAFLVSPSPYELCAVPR
T4 sequence (P11712 whole entry): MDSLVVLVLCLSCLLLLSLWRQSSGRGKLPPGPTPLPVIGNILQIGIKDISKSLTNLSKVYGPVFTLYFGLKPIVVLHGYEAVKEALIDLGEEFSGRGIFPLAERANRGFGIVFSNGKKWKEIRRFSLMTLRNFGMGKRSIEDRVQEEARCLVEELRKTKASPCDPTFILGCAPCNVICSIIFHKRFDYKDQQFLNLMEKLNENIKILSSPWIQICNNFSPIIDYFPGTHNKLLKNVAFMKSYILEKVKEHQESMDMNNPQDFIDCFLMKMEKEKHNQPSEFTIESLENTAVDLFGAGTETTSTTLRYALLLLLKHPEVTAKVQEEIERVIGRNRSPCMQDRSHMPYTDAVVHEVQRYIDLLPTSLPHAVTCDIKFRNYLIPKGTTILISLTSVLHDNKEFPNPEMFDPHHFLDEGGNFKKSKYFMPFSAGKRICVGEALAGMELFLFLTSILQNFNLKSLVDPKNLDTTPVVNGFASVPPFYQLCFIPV

| Compound | IC50 (MATE1) [µM] | solubility [1] [mM] | MDI IC50 Fold Change (CYP3A4/5; CYP3A4/5 (Midazolam)) | MDI IC50 Fold Change (CYP2D6) | IC50 (CYP2D6) [µM] | MDI IC50 Fold Change (CYP2C8) | IC50 (CYP2C8) [µM] | MDI IC50 Fold Change (CYP2C9) | IC50 (CYP2C9) [µM] | MDI IC50 Fold Change (CYP3A4) | MDI IC50 Fold Change (CYP1A2; CYP1A2) | IC50 (MATE2K) [µM] | other results |
| --- | --- | --- | --- | --- | --- | --- | --- | --- | --- | --- | --- | --- | --- |
| NC[C@H]1OB(O)c2c(OCCCO)cccc21 [EBO, Epetraborole] | > 100 | 20 (≈ 4740 µg/mL) | No | No | > 100 | No | > 100 | No | > 100 | No | No | > 100 | IC50 (CYP3A4/5; human, human hepatic (liver) microsomes, pH 7.4, probe midazolam (1′-hydroxylation), CYP3A4/5 (Midazolam)): > 100 µM; IC50 (CYP3A4; human hepatic (liver) microsomes, pH 7.4, probe testosterone (6β-hydroxylation)): > 100 µM; inhibition at 100 µM (CYP1A2; human, human hepatic microsomes, pH 7.4, highest concentration tested (100 µM), read-out: Decrease of CYP1A2 activity (inhibition)): ~30%; IC50 (CYP1A2; human, human liver microsomes, CYP1A2): > 100 µM; Percentage of CYP1A2 activity remaining (CYP1A2; preincubation with EBO in the absence of NADPH): 72.4%; Percentage of CYP1A2 activity remaining (CYP1A2; preincubation with EBO in the presence of NADPH): 81.7% |
| NC[C@H]1OB(O)c2c(OCCC(=O)O)cccc21 [M3] | > 250 | 0.25 (≈ 62.8 µg/mL) | No | No | > 1000 | No | > 1000 | No | > 1000 | No | No | > 250 | MDI IC50 Fold Change (CYP3A4/5; CYP3A4/5 (Atorvastatin)): No; IC50 (CYP3A4/5; CYP3A4/5 (Atorvastatin)): > 1000 µM; IC50 (CYP3A4/5; human, microsomes, pH 7.4, CYP3A4/5 (Midazolam)): > 1000 µM; Direct or time-dependent inhibitory activity (in words) (CYP2D6): No direct or time-dependent inhibitory activity; Direct or time-dependent inhibitory activity (in words) (CYP2C8): No direct or time-dependent inhibitory activity; Direct or time-dependent inhibitory activity (in words) (CYP2C9): No direct or time-dependent inhibitory activity; Direct or time-dependent inhibitory activity (in words) (CYP3A4; CYP3A4): No direct or time-dependent inhibitory activity; IC50 (CYP3A4; microsomes, pH 7.4): > 1000 µM; Direct or time-dependent inhibitory activity (in words) (CYP1A2; CYP1A2): No direct or time-dependent inhibitory activity; IC50 (CYP1A2; human, microsomes, CYP1A2): > 1000 µM |
